US20230346884A1, “Molecular Targets for Modulation of Dissociative and Associative States” (The Board of Trustees of the Leland Stanford Junior …, priority 2020, published 2023)
Entries after “also recorded” stand apart in the source; their conditions may differ.

Legend:
[1] = tested on: retrosplenial cortex (RSP); assay: Fiber photometry in RSP (GCaMP6m); assay type: in vivo, mouse
Description: A 405 nm and 470 nm LED illumination (Thorlabs) was combined (425 nm longpass, Thorlabs DMLP425) and coupled into a fiber optic patch cord (400 μm diameter, 0.48 NA, Doric Lenses) using a longpass dichroic (505 nm, Thorlabs DMLP505) and a fixed-focused coupler/collimator with a standard FC connector (F240FC-A, NA 0.51, f =7.9 mm)^47,48. Each illumination channel was frequency modulated using the sync output from a lock-in amplifier (SR810 DSP, Stanford Research Systems). GCaMP fluorescence was collected through the same patchcord and delivered through a bandpass emission filter (Semrock, FF01-520/35) onto a NewFocus 2151 femtowatt silicon photoreceiver (Newport, DC Low mode). The signal from the photoreceiver was split into each lock-in amplifier, and the filtered outputs were digitized at 5 kHz using a NIDAQ (National Instruments PCIe-6353) and saved using a MATLAB (MathWorks) acquisition script.
Analysis was performed using custom MATLAB (MathWorks) scripts. Widefield imaging videos were registered to a 2D top-projection atlas generated from the annotated Allen Brain Atlas volume, version CCFv2, in MATLAB (MathWorks), using an affine transformation computed from four manually selected control points. Each video was DF/F normalized, using the median for each pixel over the entire time series as F. The 410 nm channel was then temporally smoothed using a moving average (width=400 ms). The smoothed 410 nm DF/F signal for each pixel was regressed onto the 488 nm DF/F signal for the corresponding pixel, and the regression coefficients were used to scale the 410 nm channel to the 488 nm channel. This scaled 410 nm DF/F signal was then subtracted from the 488 nm DF/F signal to produce a normalized signal for each pixel. For quantification, activity traces were extracted from points centered in five cortical regions (visual, somatosensory, parietal, motor, retrosplenial) on the left hemisphere of the brain. The video data was Gaussian smoothed spatially (radius=2 pixels). Similarly, for fiber photometry recordings, the 410 nm signal was regressed onto the 488 nm signal, the 410 nm signal was scaled by the regression coefficients, and then subtracted from the 488 nm signal.
Each trace (corresponding to either a fiber photometry signal, a cellular two-photon signal, a widefield regional centroid, a widefield pixel, an sEEG trace, or a smoothed spike rate Neuropixels trace) was z-scored, and the power spectral density (PSD) was then estimated using Welch's method (pwelch( ) in Matlab), with a window size of 10*fs (15*fs for human sEEG) where fs is the sampling rate of the signal. The average band power within a specified band (i.e. 1-3 Hz) was then computed by integrating the PSD estimate (bandpower in Matlab). For displaying the traces of individual cells, traces were each zscored by subtracting the mean value of the trace (across the whole recorded time window) and dividing by the standard deviation of the trace. Unless otherwise indicated, the PSD was computed across the time window from minutes 10 to 11 post-injection.
Stereotaxic Surgery: Adult male and female HCN1^f/f, NR1^f/f, or wildtype C57/B16 were injected bilaterally in two retrosplenial locations (AP −3.1 and −3.4, ML+/−0.5, DV −0.5) with 1 uL of AAV8-Ef1a-mCherry-IRES-Cre (titer 5E11) and AAVdj-Ef1a-DIO-GCaMP6m (titer 1E13). A 400-micron optical fiber was implanted over one injection location. At least four weeks were allowed for viral expression and gene disruption before photometry recording. For gene knockout behavior experiments, injections of AAVdj-Ef1a-Cre were made at (AP −2.7, −3.1 and −3.5, ML+/−0.5, DV −1.35 and −0.70). For gene knockout control behavioral experiments, two retrosplenial injections of AAVdj-Efla-Cre were made in experimental animals.

mice [2] = assay: Tail suspension test; assay type: in vivo, mouse
Description: Tail Suspension Test: Mouse activity was recorded using a 60 Hz web camera. Struggling activity was quantified for minutes 2-10. […] Illumination began 30 seconds before tails were secured with tape and suspended from the beam. Mice were excluded if they climbed on their own tails.

mice [3] = assay: Resident-intruder social interaction assay; assay type: in vivo, mouse
Description: Social Interaction Assay: Resident-intruder social interaction was recorded for two minutes. Interactions were defined as close physical proximity behaviors, including sniffing, touching, and following. […] Illumination began 30 seconds before the same-sex intruder mouse was introduced.

mice [4] = assay: Righting reflex assay; assay type: in vivo, mouse
Description: Righting Reflex Assay: Mice were held at the neck and tail, rotated to supine position on a flat surface, and quickly released. Time to right was quantified as moment of release to moment when all 4 legs touched the ground. A five second threshold was used to classify righting success (less than 5 seconds) from failure (more than 5 seconds). […] Illumination began for 30 seconds, and then the mouse was swiftly inverted onto the flat surface.

mice [5] = assay: Open field test; assay type: in vivo, mouse; conditions: 5 min; vs saline; doses of b234
Description: Open Field Test: Mice were placed in an evenly illuminated 50 cm×50 cm open field test box. Mouse position was captured using a webcam and Viewer software (Biobserve).

mice [6] = assay: Observation for seizure-like signs after ketamine; assay type: in vivo, mouse; conditions: dissociative doses of ketamine
Description: One characteristic of seizures is increased synchrony. While the ketamine-induced rhythm involved increased synchrony in neuronal firing, the initiation, spread, maintenance/termination, and behavior were distinguishable from typical seizures.

humans = conditions: human; cited from earlier work
mouse = conditions: cited from earlier work
[7] = tested on: retrosplenial cortex (RSP); assay: Widefield (pan-cortical) imaging of cortical activity in GCaMP6s mice
Description: (2 mg/kg), lidocaine (topical), LSD ((+)-Lysergic acid diethylamide (+)-tartrate (2:1), 0.3 mg/kg), and diazepam (2 mg/kg). […] For anti-depressant effects, human doses are typically 0.3-1 mg/kg, and in mouse 3-10 mg/kg.
As described^8, mice were anesthetized with isoflurane, the scalp was removed, the skull cleaned and dried, and a custom head-plate was cemented to contacts over the cerebellum and in front of the olfactory bulb. The skull was then covered in a thin layer of cyanoacrylate glue (Apollo 2000, Cyberbond), clear dental acrylic (Ortho-Jet, Lang Dental), and clear nail polish (Electron Microscopy Services). […] (0.1 mg/kg) was injected subcutaneously for pain management. […] Imaging was performed on a custom-built fluorescence microscope designed for high light collection efficiency and large field of view. […] Alternating 410 nm and 488 nm illumination for non-Ca^2+ dependent artifact removal was controlled using a microcontroller (Arduino) slaved to the frame output trigger of the camera.

[8] = tested on: neurons throughout the brain; assay: Simultaneous recording from four Neuropixels probes with i.p. drug delivery
Description: Mice were anesthetized with isoflurane, carefully leveled in a stereotaxic apparatus and their scalp and periosteum were removed. A 3% hydrogen peroxide in saline solution was used to clean the surface of the skull. A custom stainless steel headbar was leveled on the skull and attached using clear dental cement. After the cement had dried, targeted probe entry sites were stereotaxically marked on the cement layer with a permanent marker (Day 1: “mPFC”, 2.3AP, 0.6 ML; “somatosensory”, −0.7AP, −4.0 ML; “retrosplenial”, −2AP, −1 ML; “subiculum”, −3.5AP, 2.14 ML; Day 2: “OFC”: 2.5AP, 1.5 ML; “mPFC”: 2.3AP, −0.6 ML; “retrosplenial”, −2AP, 1 ML; “thalamus”, −1.5AP, −1.7 ML). […] A 2 mm long insulated platinum-iridium wire was implanted centrally over the cerebellum, with the last several hundred microns bared to serve as an electrical reference.
Mice were acclimated to head fixation and the recording rig over several days before recording. Several hours before recording, mice were anesthetized for approximately 30 minutes each while small 1 mm craniotomies were made over four pre-marked areas. Craniotomies were kept clean of bone fragments and made such that bleeding was minimized. The skull was covered with a pool of saline and with Quik-Cast to protect and keep moist craniotomies before recording. Mice recovered in their homecages before recording. Immediately prior to recording set up, mice were very briefly anesthetized with isoflurane and implanted with an IV catheter system (BD Saf-T-Intima Closed IV Catheter System: 22G ×¾″, containing an integrated Y adaptor and safety lock) to their intraperitoneal cavity and affixed with glue. […] While still anesthetized, mice were headfixed and tubing was secured stably to a custom mouse holder by tape. Quik-Cast was removed from the skull, and craniotomies were briefly cleaned before being submerged in a pool of saline. Four Neuropixels 1.0 probes^43,44, were grounded together with the mouse reference electrode, coated with red fixable dye (CM-Dil, ThermoFisher), positioned over each craniotomy, and carefully inserted at approximately 15 degrees from the vertical axis to depths of 4-5 mm at a rate of approximately 3 um/s. Following the completion of all insertions, the probes were allowed to rest for at least 10 minutes before the recording began. 30 kHz data was acquired from the four probes simultaneously using the Neuropixels control system (as described in the User Manual) and SpikeGLX software (billkarsh.github.io/SpikeGLX/). The four acquisitions were synchronized using a common squarewave signal recorded for all probes and aligned to the nearest pulse edge. Following the beginning of recording, a 20-minute baseline period of activity was collected. […]

[9] = both channel-knockouts (HCN1, GRIN1), ketamine

## CNC1(c2ccccc2Cl)CCCCC1=O (stereo not drawn) [ketamine]
[1]; 10 min after injection
  Glass's A, power 25 mg/kg vs 13 mg/kg (FIG. 3C): 3.2
[1]; GRIN1 knockout, ketamine
  Hedge's g effect-size, oscillation-power GRIN1-pre/GRIN1-post (FIG. 4E): 2.03
[1]; HCN1 knockout, ketamine
  Hedge's g effect-size, oscillation-power HCN1-pre/HCN1-post (FIG. 4E): 1.02
[1]; ketamine 25 mg/kg, widefield imaging and fiber photometry
  1-3 Hz RSP oscillation: revealed a 1-3 Hz oscillation at 25 mg/kg
[1]; local RSP GRIN1 (NMDAR) knockout mice, four weeks after virus
  Ketamine-induced oscillations: significantly diminished; also recorded: partially attenuated
[1]; local RSP HCN1 knockout mice, four weeks after virus
  Ketamine-induced oscillations: significantly diminished
[1]; wild-type mice
  Ketamine-induced oscillations: preserved in wild-type
[1]; wild-type, ketamine
  Hedge's g effect-size, oscillation-power WT-pre/WT-post (FIG. 4E): 3.22
Mice [2]; [9]
  Tail suspension-escape behavior vs. wild-type: modestly-recovered tail suspension-escape behavior
Mice [2]; ketamine >=25 mg/kg
  Tail-suspension escape responses: suppressed tail-suspension escape responses
Mice [3]; [9]
  Resident-intruder social interactions vs. wild-type: modestly-recovered
Mice [3]; ketamine >=25 mg/kg
  Resident-intruder interactions: suppressed
Mice [4]; anesthetic ketamine 200 mg/kg
  Righting-reflex test for consciousness: abolished by anesthetic ketamine
Mice [4]; subanesthetic ketamine doses
  Righting-reflex test for consciousness: preserved in all animals
Mice [4]; wild-type and knockout mice, ketamine
  Righting of postural inversion: all mice successfully-righted postural inversion
Mice [5]
  Open-field locomotion velocity: decreased velocity
Mice [6]
  Seizure-like signs: no rigidity, convulsive movements, absence-like states, or salivation/rearing/falling were observed
humans
  Dose at which potent dissociation is consistently reported: 2 to 3 mg/kg
  Doses for anti-depressant effects: 0.3 to 1 mg/kg
mouse
  Doses for anti-depressant effects: 3 to 10 mg/kg
[7]; Supplementary Note 2
  Time over which ketamine-induced oscillation decayed: ~15 min
  Time over which ketamine-induced oscillation emerged: 2 min
[7]; ketamine 50 mg/kg i.p.
  Ketamine-induced 1-3 Hz movements: no ketamine-induced 1-3 Hz movements were observed
  Time for rhythm to emerge: ≤ 120 s
  Time for rhythm to return to baseline: ~45 min
[7]; ketamine, five consecutive days
  Magnitude of rhythm on repeated days: exhibited similar magnitude across five consecutive days
[7]; subanesthetic ketamine
  RSP activity-correlations with other dorsal-cortical regions: reduced RSP activity-correlations with all other dorsal-cortical regions
[7]; to other layers or nearby cortical regions
  Spread of the ketamine-rhythm: did not spread beyond layer 5 neurons in retrosplenial cortex
[7]; widefield imaging, i.p., ketamine 50 mg/kg subanesthetic dose, other drugs at doses of b234
  Cortical activity pattern: 1-3 Hz oscillation localized to retrosplenial cortex (RSP): a 1-3 Hz oscillation emerged in retrosplenial cortex (RSP), but not in any other cortical region
[8]; 8-12 min after ketamine injection (50 mg/kg i.p.)
  Correlations of brain regions with RSP: correlations with RSP were reduced
[8]; subanesthetic ketamine
  Coupling of anteromedial thalamic neurons with RSP: oscillate out-of-phase with RSP
  Coupling of laterodorsal and anteroventral thalamus: became more-strongly correlated to each other and RSP
  Rhythmicity of subcortical regions: specific subcortical regions (inaccessible to cortical imaging) exhibiting increased rhythmicity
